From patent publication US6787545B1, “Pyrrolotriazine derivatives having spla2-inhibitory activities” (Shiongi & Co., Ltd., priority 1999, dated 2004) come the findings set out here.

Data set [1] deals with T1, recombinant human secretory phospholipase A2 (Homo sapiens, UniProt P14555).
T1 sequence (P14555 21-144): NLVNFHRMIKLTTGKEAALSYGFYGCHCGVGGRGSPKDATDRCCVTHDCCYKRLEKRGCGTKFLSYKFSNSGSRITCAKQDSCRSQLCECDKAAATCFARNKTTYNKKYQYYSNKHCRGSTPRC
Description: Inhibition test of human secretory phospholipase A2 (chromogenic assay, 96 well microtiterplate). The format is biochemical. The note with it: sPLA2 50 ng/well, 40° C., 30 minutes, OD 405 nm, substrate 1,2-bis(heptanoylthio)-1,2-dideoxy-sn-glycero-3-phospholylcholine. The source says: Inhibition Test of Human Secretory Phospholipase A2 Analytical Experiment
In order to identify and evaluate an inhibitor of recombinant human secretory phospholipase A2, the following chromogenic assay is utilized. The assay herein has been applied for high volume screening wherein 96 well microtiterplate is used. A general explanation for such assay is described in “Analysis of Human Synovial Fluid Phospholipase A2 on Short Chain Phosphatidylcholine-Mixed Micelles: Development of a Spectrophotometric Assay Suitable for a Micortiterplate Reader” (Analytical Biochemistry, 204, pp 190-197, 1992 by Laure. J. Reynolds. Lori L. Hughes and Edward A. Dennis: the disclosure of which is incorporated herein for reference.
1 mg of sPLA2 is dissolved in 1 ml of an enzyme buffer. Thereafter, the solution is maintained at 4° C.
In the assay, 5 μl of the solution is diluted with 1995 μl of the reaction buffer to be used.
198 mg of 5,5′-dithiobis-2-[…] (manufactured by Wako Pure Chemicals) is dissolved in 100 ml of H2O
pH 7.5 (adjusted with NaOH)
100 mg of racemic 1,2-bis(heptanoylthio)-1,2-dideoxy-sn-glycero-3-phospholylcholine is dissolved in 1 ml of chloroform.
624.9 mg of Triton-X 100 is dissolved in the reaction buffer.
Enzyme Reaction: for 1 Plate of Microtiterplate
1) 0.106 ml of the substrate solution is put in a centrifugal tube, and nitrogen gas is jetted to remove the solvent. 0.54 ml of Triton-X 100 is added thereto, the mixture is stirred, thereafter it is sonified in a bath type sonification to dissolve. To the resulting product are added 17.8 ml of the reaction buffer and 0.46 ml of DTNB, and 0.18 ml each of the admixture is poured to wells of the 96 well microtiterplate.
2) 10 μl of a test compound (or solvent blank) are added in accordance with alignment of plates which has been previously set.
3) Incubation is effected at 40° C. for 15 minutes.
4) 20 μl of an enzyme solution (sPLA2) which has been previously diluted (50 ng/well) are added to start reaction (40° C., 30 minutes).
5) Changes in absorbancy for 30 minutes are measured by a plate reader, and inhibition activity was calculated (OD: 405 nm).
6) IC50 was determined by plotting log concentration with respect to inhibition values within 10% to 90% inhibiting range.

SMILES strings stand for the structures.

Regarding `CCc1c(C(=O)C(N)=O)c2c(OCC(=O)O)nc(C)nn2c1Cc1ccccc1-c1ccccc1` [Compound I-8], the melting point (in general, the temperature of the solid-liquid transition) was in the range of 174 to 176 °C. The IC50 (in general, the concentration that inhibits the measured activity by half) in data set [1] was 8 nM.
For `CCc1c(C(=O)C(N)=O)c2c(OCC(=O)OC)nc(C)nn2c1Cc1ccccc1` [Compound I-3] the same measures were 170 to 171 °C and 317 nM.
For `CCc1c(C(=O)C(N)=O)c2c(OCC(=O)O)nc(C)nn2c1Cc1ccccc1` [Compound I-4] the same measures were 207 to 209 °C and 11 nM.
Turning to `Cc1nc(OCC(=O)O)c2c(C(=O)C(N)=O)c(C)c(Cc3ccccc3)n2n1` [Compound I-2], the melting point fell in the range of 195 to 197 °C. Also, the IC50 in data set [1] came out at 13 nM.
Consider `CCc1c(C(=O)C(N)=O)c2c(OCC(=O)OC)nc(C)nn2c1Cc1ccccc1-c1ccccc1` [Compound I-7], for which, in data set [1], the IC50 stood at 607 nM.
Regarding `COC(=O)COc1nc(C)nn2c(Cc3ccccc3)c(C)c(C(=O)C(N)=O)c12` [Compound I-1], the IC50 in data set [1] was determined as 203 nM.
`CCc1c(C(=O)C(N)=O)c2c(OCC(=O)O)nc(C)nn2c1Cc1ccccc1-c1cccs1` [Compound I-6] registered a melting point of 184 to 186 °C. For the same molecule, the IC50 in data set [1] was determined as 11 nM.
